Test results: ChEMBL document CHEMBL1833882, “Preparation and antibacterial evaluation of decarboxylated fluoroquinolones” (2011)
Values after ≈ are worked out from the molar mass of the structure shown.

What was measured:
Assay type in all cases: functional
Bacillus anthracis = assay: Antibacterial activity against Bacillus anthracis Sterne after 18 hrs by broth dilution method
Acinetobacter baumannii = assay: Antibacterial activity against Acinetobacter baumannii ATCC 19606 after 18 hrs by broth dilution method; conditions: ATCC 19606 = CIP 70.34 = JCM 6841, 18 h
Klebsiella pneumoniae [1] = assay: Antibacterial activity against Klebsiella pneumoniae ATCC 13882 after 18 hrs by broth dilution method; conditions: ATCC 13882, 18 h
Staphylococcus aureus [2] = assay: Antibacterial activity against Staphylococcus aureus ATCC 25923 after 18 hrs by broth dilution method; conditions: ATCC 25923, 18 h
Escherichia coli [3] = assay: Antibacterial activity against Escherichia coli ATCC 29425 after 16 to 18 hrs by agar dilution method
Escherichia coli [4] = assay: Antibacterial activity against Escherichia coli 700 expressing TolC after 18 hrs by broth dilution method; conditions: Escherichia coli, 700, 18 h
Pseudomonas aeruginosa [5] = assay: Antibacterial activity against Pseudomonas aeruginosa PAO1 ATCC BAA-47 after 18 hrs by broth dilution method; conditions: PAO1 ATCC BAA-47, 18 h
[6] = system: Stenotrophomonas maltophilia; assay: Antibacterial activity against Stenotrophomonas maltophilia ATCC 13637 after 18 hrs by broth dilution method; conditions: ATCC 13637, 18 h
Escherichia coli [7] = assay: Antibacterial activity against TolC deficient Escherichia coli 701 after 18 hrs by broth dilution method; conditions: Escherichia coli, 701, 18 h
Burkholderia cepacia [8] = assay: Antibacterial activity against Burkholderia cepacia ATCC 39277 after 18 hrs by broth dilution method; conditions: ATCC 39277, 18 h
Bacillus subtilis = assay: Antibacterial activity against Bacillus subtilis BD54 after 18 hrs by broth dilution method; conditions: BD54, 18 h
Burkholderia cepacia [9] = assay: Antibacterial activity against Burkholderia cepacia ATCC 55792 after 18 hrs by broth dilution method; conditions: ATCC 55792, 18 h
Klebsiella pneumoniae [10] = assay: Antibacterial activity against Klebsiella pneumoniae ATCC 700603 after 18 hrs by broth dilution method; conditions: ATCC 700603, 18 h
Escherichia coli [11] = assay: Antibacterial activity against Escherichia coli ATCC 29425 after 18 hrs by broth dilution method; conditions: ATCC 29425, 18 h
Pseudomonas aeruginosa [12] = assay: Antibacterial activity against Pseudomonas aeruginosa PAO1 harboring oprM deltamexAB after 18 hrs by broth dilution method; conditions: PAO1, 18 h
Enterococcus faecalis [13] = assay: Antibacterial activity against Enterococcus faecalis ATCC 29212 after 16 to 18 hrs by agar dilution method
Enterococcus faecalis [14] = assay: Antibacterial activity against Enterococcus faecalis ATCC 29212 after 18 hrs by broth dilution method; conditions: ATCC 29212, 18 h
Enterococcus faecalis [15] = assay: Antibacterial activity against vancomycin-resistant Enterococcus faecalis ATCC 51575 after 18 hrs by broth dilution method; conditions: ATCC 51575, 18 h
Staphylococcus aureus [16] = assay: Antibacterial activity against methicillin-resistant Staphylococcus aureus 1094 after 18 hrs by broth dilution method; conditions: Staphylococcus aureus, 1094, 18 h
Staphylococcus aureus [17] = assay: Antibacterial activity against Staphylococcus aureus ATCC 25923 after 16 to 18 hrs by agar dilution method

Structure (SMILES) | MIC (Bacillus anthracis) | MIC (Acinetobacter baumannii) | MIC (Klebsiella pneumoniae [1]) | MIC (Staphylococcus aureus [2]) | MIC (Escherichia coli [3]) | MIC (Escherichia coli [4]) | MIC (Pseudomonas aeruginosa [5]) | MIC [6] | MIC (Escherichia coli [7]) | MIC (Burkholderia cepacia [8]) | MIC (Bacillus subtilis) | MIC (Burkholderia cepacia [9]) | MIC (Klebsiella pneumoniae [10]) | MIC (Escherichia coli [11]) | MIC (Pseudomonas aeruginosa [12]) | MIC (Enterococcus faecalis [13]) | MIC (Enterococcus faecalis [14]) | MIC (Enterococcus faecalis [15]) | MIC (Staphylococcus aureus [16]) | MIC (Staphylococcus aureus [17])
O=CN1CCN(c2cc3c(cc2F)c(=O)ccn3C2CC2)CC1 | > 80 µg/mL | > 80 µg/mL | > 80 µg/mL | > 80 µg/mL | > 64 µg/mL | > 80 µg/mL | > 80 µg/mL | > 80 µg/mL | > 80 µg/mL | > 80 µg/mL | > 80 µg/mL | > 80 µg/mL | > 80 µg/mL | > 80 µg/mL | > 80 µg/mL | > 64 µg/mL | > 80 µg/mL | > 80 µg/mL | > 80 µg/mL | > 64 µg/mL
CC1CN(c2c(F)cc3c(=O)c(C(=O)O)cn(C4CC4)c3c2F)CCN1 (stereo not drawn) | 0.078 µg/mL (≈ 0.215 µM) | 0.313 µg/mL (≈ 0.861 µM) | ≤ 0.02 µg/mL | 0.235 µg/mL (≈ 0.647 µM) | – | ≤ 0.02 µg/mL | 1.25 µg/mL (≈ 3.44 µM) | 0.039 µg/mL (≈ 0.107 µM) | ≤ 0.02 µg/mL | 0.078 µg/mL (≈ 0.215 µM) | 0.078 µg/mL (≈ 0.215 µM) | 0.235 µg/mL (≈ 0.647 µM) | 0.313 µg/mL (≈ 0.861 µM) | – | 0.039 µg/mL (≈ 0.107 µM) | – | 0.625 µg/mL (≈ 1.72 µM) | 0.625 µg/mL (≈ 1.72 µM) | 10 µg/mL (≈ 27.5 µM) | –
CCN1CCN(c2cc3c(cc2F)c(=O)c(C(=O)O)cn3C2CC2)CC1 [ENROFLOXACIN] | 0.078 µg/mL (≈ 0.217 µM) | 0.235 µg/mL (≈ 0.654 µM) | 0.098 µg/mL (≈ 0.273 µM) | 0.156 µg/mL (≈ 0.434 µM) | < 0.06 µg/mL | 0.049 µg/mL (≈ 0.136 µM) | 4.4 µg/mL (≈ 12.2 µM) | 0.098 µg/mL (≈ 0.273 µM) | ≤ 0.01 µg/mL | 0.098 µg/mL (≈ 0.273 µM) | 0.078 µg/mL (≈ 0.217 µM) | 0.625 µg/mL (≈ 1.74 µM) | 0.625 µg/mL (≈ 1.74 µM) | 0.05 µg/mL (≈ 0.139 µM) | 0.078 µg/mL (≈ 0.217 µM) | 0.13 µg/mL (≈ 0.362 µM) | 0.625 µg/mL (≈ 1.74 µM) | 0.625 µg/mL (≈ 1.74 µM) | 5 µg/mL (≈ 13.9 µM) | 0.13 µg/mL (≈ 0.362 µM)
O=C(O)c1cn(C2CC2)c2cc(N3CCNCC3)c(F)cc2c1=O [CIPROFLOXACIN] | – | 1.25 µg/mL (≈ 3.77 µM) | 0.039 µg/mL (≈ 0.118 µM) | 0.625 µg/mL (≈ 1.89 µM) | < 0.06 µg/mL | – | 0.313 µg/mL (≈ 0.945 µM) | 0.156 µg/mL (≈ 0.471 µM) | – | 0.078 µg/mL (≈ 0.235 µM) | 0.156 µg/mL (≈ 0.471 µM) | 0.625 µg/mL (≈ 1.89 µM) | 0.313 µg/mL (≈ 0.945 µM) | < 0.02 µg/mL | 0.02 µg/mL (≈ 0.0604 µM) | 0.5 µg/mL (≈ 1.51 µM) | 1.25 µg/mL (≈ 3.77 µM) | 0.625 µg/mL (≈ 1.89 µM) | 20 µg/mL (≈ 60.4 µM) | 0.5 µg/mL (≈ 1.51 µM)
O=CN1CCN(c2cc3c(cc2F)c(=O)c(C(=O)O)cn3C2CC2)CC1 | 0.235 µg/mL (≈ 0.654 µM) | 2.5 µg/mL (≈ 6.96 µM) | 0.156 µg/mL (≈ 0.434 µM) | 0.313 µg/mL (≈ 0.871 µM) | 0.5 µg/mL (≈ 1.39 µM) | 0.313 µg/mL (≈ 0.871 µM) | 10 µg/mL (≈ 27.8 µM) | 1.25 µg/mL (≈ 3.48 µM) | ≤ 0.078 µg/mL | 0.313 µg/mL (≈ 0.871 µM) | 0.117 µg/mL (≈ 0.326 µM) | 1.25 µg/mL (≈ 3.48 µM) | 5 µg/mL (≈ 13.9 µM) | 0.5 µg/mL (≈ 1.39 µM) | ≤ 0.078 µg/mL | 1 µg/mL (≈ 2.78 µM) | 0.625 µg/mL (≈ 1.74 µM) | 2.5 µg/mL (≈ 6.96 µM) | 40 µg/mL (≈ 111 µM) | 0.5 µg/mL (≈ 1.39 µM)
CCn1ccc(=O)c2cc(F)c(N3CCN(C=O)CC3)cc21 | > 80 µg/mL | > 80 µg/mL | > 80 µg/mL | > 80 µg/mL | > 64 µg/mL | 40 µg/mL (≈ 132 µM) | > 80 µg/mL | > 80 µg/mL | 40 µg/mL (≈ 132 µM) | > 80 µg/mL | > 80 µg/mL | > 80 µg/mL | > 80 µg/mL | 40 µg/mL (≈ 132 µM) | 80 µg/mL (≈ 264 µM) | > 64 µg/mL | > 80 µg/mL | > 80 µg/mL | > 80 µg/mL | > 64 µg/mL
CCn1cc(C(=O)O)c(=O)c2cc(F)c(N3CCNCC3)cc21 [NORFLOXACIN] | 0.313 µg/mL (≈ 0.98 µM) | 10 µg/mL (≈ 31.3 µM) | 0.117 µg/mL (≈ 0.366 µM) | 1.25 µg/mL (≈ 3.91 µM) | 0.01 µg/mL (≈ 0.0313 µM) | 0.059 µg/mL (≈ 0.185 µM) | 1.25 µg/mL (≈ 3.91 µM) | 1.25 µg/mL (≈ 3.91 µM) | 0.039 µg/mL (≈ 0.122 µM) | 1.25 µg/mL (≈ 3.91 µM) | 0.625 µg/mL (≈ 1.96 µM) | 2.5 µg/mL (≈ 7.83 µM) | 0.938 µg/mL (≈ 2.94 µM) | 0.12 µg/mL (≈ 0.376 µM) | 0.039 µg/mL (≈ 0.122 µM) | 2 µg/mL (≈ 6.26 µM) | 2.5 µg/mL (≈ 7.83 µM) | 2.5 µg/mL (≈ 7.83 µM) | 40 µg/mL (≈ 125 µM) | 2 µg/mL (≈ 6.26 µM)
CCn1ccc(=O)c2cc(F)c(N3CCNCC3)cc21 | 80 µg/mL (≈ 291 µM) | > 80 µg/mL | 40 µg/mL (≈ 145 µM) | > 80 µg/mL | 64 µg/mL (≈ 232 µM) | 40 µg/mL (≈ 145 µM) | > 80 µg/mL | > 80 µg/mL | 5 µg/mL (≈ 18.2 µM) | > 80 µg/mL | 80 µg/mL (≈ 291 µM) | > 80 µg/mL | > 80 µg/mL | 40 µg/mL (≈ 145 µM) | 40 µg/mL (≈ 145 µM) | 32 µg/mL (≈ 116 µM) | > 80 µg/mL | > 80 µg/mL | > 80 µg/mL | > 64 µg/mL
CC1CN(c2c(F)cc3c(=O)ccn(C4CC4)c3c2F)CCN1 (stereo not drawn) | 80 µg/mL (≈ 251 µM) | > 80 µg/mL | > 80 µg/mL | > 80 µg/mL | > 64 µg/mL | > 80 µg/mL | > 80 µg/mL | > 80 µg/mL | 15 µg/mL (≈ 47 µM) | > 80 µg/mL | > 80 µg/mL | > 80 µg/mL | > 80 µg/mL | > 80 µg/mL | 40 µg/mL (≈ 125 µM) | > 64 µg/mL | > 80 µg/mL | > 80 µg/mL | > 80 µg/mL | > 64 µg/mL
O=c1ccn(C2CC2)c2cc(N3CCNCC3)c(F)cc12 | > 80 µg/mL | > 80 µg/mL | > 80 µg/mL | > 80 µg/mL | > 64 µg/mL | > 80 µg/mL | > 80 µg/mL | > 80 µg/mL | > 80 µg/mL | > 80 µg/mL | > 80 µg/mL | > 80 µg/mL | > 80 µg/mL | > 80 µg/mL | 80 µg/mL (≈ 278 µM) | > 64 µg/mL | > 80 µg/mL | > 80 µg/mL | > 80 µg/mL | > 64 µg/mL
